Experiments:
[1] = tested on: onset of asthma in young children with atopic dermatitis; experiment: 18 month double blind, placebo-controlled study of cetirizine dihydrochloride for preventing the onset of asthma; format: in vivo, infants; conditions: for RR for developing asthma when cetirizine treated: versus placebo
Text: The aim of the study relative to the clinical effect of cetirizine dihydrochloride was to establish on the intention to treat (ITT population) whether an 18 month cetirizine dihydrochloride treatment can prevent the onset of asthma in young children with atopic dermatitis, when compared to placebo. Subgroups based on the baseline status of biological markers as well as specific asthmatic patients (i.e. wheezers only; asthma onset date at least 3 months after inclusion) were foreseen as well. It was considered that a 30% reduction of the incidence of asthma is clinically relevant. Secondary parameters of efficacy included the severity of asthma and atopic dermatitis.
All the infants had to have at least one parent or sibling with a history of atopic disease (atopic dermatitis, allergic rhinitis or asthma). Excluded were infants with asthma, or with a history of any episodes of wheezing or nocturnal cough as well as any condition likely to obscure the diagnosis of asthma (Guidelines for the diagnosis and management of asthma. National Asthma Education and Prevention Program. Expert Panel Report II. National Institute of Health publication 97-4051; International Report. International consensus report on diagnosis and treatment of asthma. National Heart, Lung and Blood Institute. National Institute of Health publication 92-3091).
The study was a prospective, randomized, double blind, parallel group, and placebo-controlled study with cetirizine dihydrochloride.
Study treatment lasted for 18 months. After the treatment period, patients entered a long-term follow-up period.
The primary end-point for efficacy was the onset of asthma, defined as 3 episodes of nocturnal cough with sleep disturbances or wheezing, separated by at least 7 days, in a clinical setting where asthma is likely and conditions other than allergy have been excluded.
Serum total and specific (grass pollen, cow's milk, egg, house dust mites and cat dander) IgE antibody levels were determined using the Pharmacia CAP® system (Pharmacia & Upjohn, Uppsala, Sweden). These analyses were made at baseline, and after 3, 12 and 18 months of treatment by a central laboratory (Institut Pasteur—Lille, France) according to instructions of the manufacturer and routine clinical laboratory performances.
(§1) Oral solutions of cetirizine dihydrochloride (10 mg/ml) and matching placebo, similar in appearance and taste were used. The recommended study dosage was 0.25 mg cetirizine/kg b.i.d. (b.i.d.=“bis in die”, 2 times a day).
Sample size was based on an expected cumulative incidence of asthma in 40% of children in the placebo group after 18 months of treatment. A decrease of 30% of the incidence was considered as clinically relevant.

[2] = tested on: infants with atopic dermatitis; experiment: Adverse events recorded during the 18 month study; format: in vivo
Protocol: At each of the nine visits, the atopy status, any concurrent illnesses, concomitant medications and procedures were recorded. Patients underwent a physical examination, including the measurement of vital signs.
Adverse events were recorded by the parents on diary cards and discussed with the investigator at each visit. Serious adverse events had to be reported immediately.
as §1

[3] = subgroup with elevated Eosinophil count at baseline

In the case of O=C(O)COCCN1CCN(C(c2ccccc2)c2ccc(Cl)cc2)CC1 (centres unmarked) [Cetirizine], the “Occurrence of Asthma by Treatment” value ([1]; ITT population, 18 months, 0.25 mg/kg b.i.d. oral) is reported as “(37.7) %”, the “number of children developing asthma” value ([1]; early treatment initiated between 1 and 2 years of age, atopic dermatitis, sensitized (specific IgE ≧0.35 kUA/l) to grass pollen or house dust mite) is reported as “halved” and the prevention of asthma ([1]; infants with atopic dermatitis and evidence of sensitivity to grass pollen or house dust mite) is reported as “successfully prevents asthma”. For the same compound, the “risk of developing asthma compared with placebo” value ([1]; infants with raised baseline total IgE (≧30 kU/l) or specific IgE antibodies (≧0.35 kUA/l)) was “reduced risk of developing asthma”, the “Occurrence of Asthma by Treatment” value [1, 3] was “(42.7) %” and the “Occurrence of Asthma by Treatment” value ([1]; subgroup with elevated IgE Cat dander (E1) at baseline (≧0.35 kUA/l)) was “(40.6) %”. The “Occurrence of Asthma by Treatment” value ([1]; subgroup with elevated IgE Egg (F1) at baseline (≧0.35 kUA/l)) was “(31.2) %”, the “Occurrence of Asthma by Treatment” value ([1]; subgroup with elevated IgE Grass pollen (GX1) at baseline (≧0.35 kUA/l)) was “(27.8) %” and the “Occurrence of Asthma by Treatment” value ([1]; subgroup with elevated IgE HDM (D1) at baseline (≧0.35 kUA/l)) was “(28.6) %”. The “Occurrence of Asthma by Treatment” value ([1]; subgroup with elevated IgE HDM + Grass pollen at baseline (≧0.35 kUA/l)) was “(34.2) %”, the “Occurrence of Asthma by Treatment” value ([1]; subgroup with elevated IgE Milk (F2) at baseline (≧0.35 kUA/l)) was “(30.7) %” and the “Occurrence of Asthma by Treatment” value ([1]; subgroup with elevated Total IgE (PRIST) at baseline (≧30 kU/l)) was “(38.1) %”. For the same compound, the “RR for developing asthma when cetirizine treated” value (“RR for developing asthma” for short) [1, 3] was 0.9, the “RR for developing asthma” value ([1]; subgroup with elevated IgE Cat dander (E1) at baseline) was 0.9 and the “RR for developing asthma” value ([1]; subgroup with elevated IgE Egg (F1) at baseline) was 0.8. The “RR for developing asthma” value ([1]; subgroup with elevated IgE Grass pollen (GX1) at baseline) was 0.5, the “RR for developing asthma” value ([1]; subgroup with elevated IgE HDM (D1) at baseline) was 0.6 and the “RR for developing asthma” value ([1]; subgroup with elevated IgE HDM + Grass pollen at baseline) was 0.6. For the same compound, the “RR for developing asthma” value ([1]; subgroup with elevated IgE Milk (F2) at baseline) was 0.7, the “RR for developing asthma” value ([1]; subgroup with elevated Total IgE (PRIST) at baseline) was 0.9 and the safety in infants ([2]; 18 month treatment, large trial in infants) was “safe product”. The “urticaria (adverse event frequency)” value ([2]; cetirizine group versus 16.1% placebo, p<0.001) was 5.8% and the “adverse event (AE) profiles between groups” value ([2]; cetirizine versus placebo, except for urticaria) was “no significant differences”.
